In EP0901466B1, “BIPHENYLSULFONAMIDE MATRIX METALLOPROTEINASE INHIBITORS” (WARNER-LAMBERT COMPANY, priority 1996, dated 1997):
Like-named read-outs stand apart in the source and are kept apart here.

Legend:
Type in all cases: biochemical
[1] = target: T1, full-length gelatinase B (Homo sapiens, UniProt P14780); assay: full-length gelatinase B hydrolysis of thiopeptolide (FLGB); conditions: thiopeptolide substrate
T1 construct: full-length gelatinase B (FLGB) hydrolysis of thiopeptolide
Text: (§1) The compounds were additionally evaluated for their ability to inhibit full-length collagenase hydrolysis of thiopeptolide substrate (FLC) and full-length gelatinase B (FLGB) hydrolysis of thiopeptolide.

[2] = target: stromelysin catalytic domain (Homo sapiens, UniProt P08254); assay: stromelysin catalytic domain hydrolysis of thiopeptolide (SCD (T))
[3] = target: T2, full-length collagenase (Homo sapiens, UniProt P03956); assay: full-length collagenase hydrolysis of thiopeptolide substrate (FLC)
T2 sequence (P03956 100-469): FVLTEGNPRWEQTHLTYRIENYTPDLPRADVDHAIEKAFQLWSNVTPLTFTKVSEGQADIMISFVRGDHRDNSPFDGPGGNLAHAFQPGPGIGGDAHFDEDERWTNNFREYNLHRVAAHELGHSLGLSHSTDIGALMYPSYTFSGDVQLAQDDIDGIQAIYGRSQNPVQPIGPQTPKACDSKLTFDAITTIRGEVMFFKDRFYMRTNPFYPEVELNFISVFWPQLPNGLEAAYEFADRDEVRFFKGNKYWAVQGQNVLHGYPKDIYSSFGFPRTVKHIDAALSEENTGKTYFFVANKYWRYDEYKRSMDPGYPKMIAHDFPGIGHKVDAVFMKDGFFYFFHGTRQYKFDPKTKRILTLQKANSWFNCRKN
Text: as §1

[4] = thiopeptolide substrate, read-out: SCD (T) (IC50)

Chain of stromelysin catalytic domain (P08254 100-272 limits assumed): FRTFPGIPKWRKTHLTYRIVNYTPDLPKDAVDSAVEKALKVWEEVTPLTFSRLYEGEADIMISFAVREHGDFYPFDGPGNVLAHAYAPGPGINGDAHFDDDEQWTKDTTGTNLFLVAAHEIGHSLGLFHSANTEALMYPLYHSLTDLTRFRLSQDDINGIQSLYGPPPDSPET
T1 sequence (P14780 94-707, species assumed): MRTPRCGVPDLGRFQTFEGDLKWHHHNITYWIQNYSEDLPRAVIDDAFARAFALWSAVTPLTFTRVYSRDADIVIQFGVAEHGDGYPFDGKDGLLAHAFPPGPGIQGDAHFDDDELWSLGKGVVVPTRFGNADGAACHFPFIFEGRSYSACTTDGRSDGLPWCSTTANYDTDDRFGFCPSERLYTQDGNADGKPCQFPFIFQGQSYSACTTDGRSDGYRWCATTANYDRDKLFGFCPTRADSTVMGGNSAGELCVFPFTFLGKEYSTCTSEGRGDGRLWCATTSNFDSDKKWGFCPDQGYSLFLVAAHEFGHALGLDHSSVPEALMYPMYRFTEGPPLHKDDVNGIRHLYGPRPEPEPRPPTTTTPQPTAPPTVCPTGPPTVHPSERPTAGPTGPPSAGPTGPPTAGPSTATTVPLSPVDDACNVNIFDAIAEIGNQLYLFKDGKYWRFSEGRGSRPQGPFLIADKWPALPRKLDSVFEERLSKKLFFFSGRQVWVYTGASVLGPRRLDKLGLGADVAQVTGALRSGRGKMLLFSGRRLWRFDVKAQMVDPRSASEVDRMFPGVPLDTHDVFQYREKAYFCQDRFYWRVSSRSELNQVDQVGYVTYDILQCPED

| IC50 [2, 4] [nM] | SMILES | further results |
| --- | --- | --- |
| 31 | CC(C)[C@H](NS(=O)(=O)c1ccc(-c2ccc([N+](=O)[O-])cc2)cc1)C(=O)O [Example 3, (S)-3-Methyl-2-(4'-nitro-biphenyl-4-sulfonylamino)-butyric acid] |  |
| 14 | CC(C)[C@H](NS(=O)(=O)c1ccc(-c2ccc(F)cc2)cc1)C(=O)O [Example 16, (S)-2-(4'-Fluoro-biphenyl-4-sulfonylamino)-3-methyl-butyric acid] |  |
| 27 | CC(C)[C@H](NS(=O)(=O)c1ccc(-c2cccc(F)c2)cc1)C(=O)O [Example 17, (S)-2-(3'-Fluoro-biphenyl-4-sulfonylamino)-3-methyl-butyric acid] |  |
| 12 | Cc1ccc(-c2ccc(S(=O)(=O)N[C@H](C(=O)O)C(C)C)cc2)cc1 [Example 18, (S)-3-Methyl-2-(4'-methyl-biphenyl-4-sulfonylamino)-butyric acid] |  |

Second part, the molecule before the results:

| SMILES | IC50 [2, 4] [nM] | further results |
| --- | --- | --- |
| CC(C)[C@H](NS(=O)(=O)c1ccc(-c2ccc(Br)cc2)cc1)C(=O)O [Example 1, (S)-2-(4'-Bromo-biphenyl-4-sulfonylamino)-3-methyl-butyric acid] |  | IC50 [1]: 8340 nM |
| CC(C)[C@H](NS(=O)(=O)c1ccc(-c2ccc(Cl)cc2)cc1)C(=O)O [Example 2, (S)-2-(4'-Chloro-biphenyl-4-sulfonylamino)-3-methyl-butyric acid] |  | IC50 [2]: 100 nM; IC50 [3]: 7500 nM; IC50 [1]: 23000 nM |
| CC(C)[C@H](NS(=O)(=O)c1ccc(-c2ccc(N)cc2)cc1)C(=O)O [Example 4, (S)-2-(4'-Amino-biphenyl-4-sulfonylamino)-3-methyl-butyric acid] | 67 |  |
| CC(C)[C@H](NS(=O)(=O)c1ccc(-c2ccc(C#N)cc2)cc1)C(=O)O [Example 5, (S)-2-(4'-Cyano-biphenyl-4-sulfonylamino)-3-methyl-butyric acid] |  | IC50 [2]: 9 nM |
| CC(C)[C@H](NS(=O)(=O)c1ccc(-c2cccc(Br)c2)cc1)C(=O)O [Example 7, (S)-2-(3'-Bromo-biphenyl-4-sulfonylamino)-3-methyl-butyric acid] | 347 |  |
| CC(C)[C@H](NS(=O)(=O)c1ccc(-c2ccc(Br)cc2F)cc1)C(=O)O [Example 8, (S)-2-(4'-Bromo-2'-fluoro-biphenyl-4-sulfonylamino)-3-methyl-butyric acid] | 30 |  |
| O=C(O)[C@H](Cc1ccccc1)NS(=O)(=O)c1ccc(-c2ccc(Br)cc2)cc1 [Example 10, (S)-2-(4'-Bromo-biphenyl-4-sulfonylamino)-3-phenyl-propionic acid] | 26 |  |
| O=C(O)CNS(=O)(=O)c1ccc(-c2ccc(Br)cc2)cc1 [Example 12, (4'-Bromo-biphenyl-4-sulfonylamino)-acetic acid] | 60 |  |
| C[C@H](NS(=O)(=O)c1ccc(-c2ccc(Br)cc2)cc1)C(=O)O [Example 13, (S)-2-(4'-Bromo-biphenyl-4-sulfonylamino)-propionic acid] | 28 |  |
| CC(C)C[C@H](NS(=O)(=O)c1ccc(-c2ccc(Br)cc2)cc1)C(=O)O [Example 14, (S)-2-(4'-Bromo-biphenyl-4-sulfonylamino)-4-methyl-pentanoic acid] | 13 |  |
| COc1ccc(-c2ccc(S(=O)(=O)N[C@H](C(=O)O)C(C)C)cc2)cc1 [Example 15, (S)-2-(4'-Methoxy-biphenyl-4-sulfonylamino)-3-methyl-butyric acid] |  | IC50 [2]: 8 nM |
